Results taken from patent US20110098296A1, “Thiazole And Oxazole Kinase Inhibitors” (priority 2007, published 2011).
Counter-ions that a name gives are not always drawn.

Key:
HN5 tumor cells [1] = assay: Method B: CellTiter-Glo Growth Inhibition Assay, HN5; type: cell-based; conditions: Homo sapiens, 72 h, 3 days
Method: (§1) Human breast tumor cells (BT474) were cultured in RPMI, (Invitrogen, 22400) containing 10% fetal bovine serum (FBS). Human head and neck tumor cells (HN5) were cultured in low glucose DMEM (Invitrogen, 12320) containing 10% FBS. Human colon tumor cells (Colo205) were cultured in DMEM (Invitrogen, 10564) containing 10% FBS. Human melanoma cancer cells (SK-MEL-28) were incubated in DMEM (Invitrogen). All cell lines were maintained at 37° C. in a humidified 5% CO2, 95% air incubator. Cells were harvested using trypsin/EDTA, counted using a haemocytometer, and plated in 30 μL of the appropriate media described above, at the following densities, in a half-area, black-walled, 96-well tissue culture plate (Corning 3882): BT474 3,000 cells/well, HN5 500 cells/well, Colo205 3,000 cells/well, and SK-MEL-28 500 cells/well). The next day, compounds were diluted in DMEM containing […] gentamicin, from 10 mM stock solutions in DMSO. 30 μL/well of these dilutions were added to the 30 μL/well of media currently on the cell plates. Medium containing 0.6% DMSO was added to control wells. The final concentration of DMSO in all wells was 0.3%. Cells were incubated at 37° C., 5% CO2 for 3 days. Cell biomass was estimated using CellTiter-Glo® reagent (Promega G7571). Briefly, plates were removed from the incubator and allowed to equilibrate to rt for 30 minutes. 25-60 μL of CellTiter-Glo® reagent were added to each well of the treated cells and plates were shaken on an orbital plate shaker for 2 mins. Plates were incubated without shaking for 30 more mins and read in a luminometer with an integration time of 0.5 seconds per well. Percent inhibition of cell growth was calculated relative to vehicle-treated control wells. Concentration of compound that inhibits 50% of vehicle control cell growth (IC50) was interpolated using nonlinear regression (Levenberg-Marquardt) and the equation, y=V max*(1−(x/(K+x)))+Y2, where “K” was equal to the IC50.

Colo205 tumor cells [2] = assay: Method B: CellTiter-Glo Growth Inhibition Assay, Colo205; type: cell-based; conditions: Homo sapiens, COLO 205, 72 h, 3 days
Method: as §1

EGFR = biological target: T1, EGFR (Homo sapiens, UniProt P00533); assay: EGFR substrate phosphorylation assay (HTRF); type: biochemical; conditions: Method (A): Enzyme Mix incubated with compound at 20° C. for 1 hr, reaction started by adding Substrate Mix
T1 construct: made in house; host or cells: baculovirus expression system
Summary of the method: (§2)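 Baculovirus-expressed kinase (0.8 nM EGFR or 10 nM ErbB2 in enzyme mix) with Peptide C 0.8 μM and ATP 20 μM (substrate-mix levels), MOPS pH 7.5, MnCl2; 90 min, 20 °C, HTRF anti-phosphotyrosine. Method A adds 1 h enzyme–compound preincubation; B none. pIC50, final compound 0.00027–47.6 μM.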

BT474 tumor cells [3] = assay: Method B: CellTiter-Glo Growth Inhibition Assay, BT474; type: cell-based; conditions: Homo sapiens, BT-474, 72 h, 3 days
Method: as §1

ErbB2 = biological target: T2, ErbB2 (Homo sapiens, UniProt P04626); assay: ErbB-2 substrate phosphorylation assay (HTRF); type: biochemical; conditions: Method (A): Enzyme Mix incubated with compound at 20° C. for 1 hr, reaction started by adding Substrate Mix
T2 construct: made in house; host or cells: baculovirus expression system
Summary of the method: as §2

HN5 tumor cells [4] = assay: Method C: Cell Growth Inhibition Assay (CellTiter-Glo), HN5; type: cell-based; conditions: Homo sapiens, 72 h, 3 days, 4-parameter fit
Summary of the method: (§3)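 500 cells/well; next-day compound, 1:3 serial dilutions, 0.2% DMSO final; 3 d, 37° C, 5% CO2. Readout: CellTiter-Glo luminescence (total ATP as cell-number surrogate). IC50 from 4-parameter fit of % growth inhibition vs vehicle.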

HT-29 tumor cells = assay: Method C: Cell Growth Inhibition Assay (CellTiter-Glo), HT-29; type: cell-based; conditions: Homo sapiens, HT-29, 72 h, 3 days, 4-parameter fit
Summary of the method: as §3

Colo205 tumor cells [5] = assay: Method C: Cell Growth Inhibition Assay (CellTiter-Glo), Colo205; type: cell-based; conditions: Homo sapiens, COLO 205, 72 h, 3 days, 4-parameter fit
Summary of the method: (§4)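 Luminescent ATP signal (CellTiter-Glo, after 30 min room-temperature equilibration) served as a surrogate for cell number after a 3-day compound exposure at 37° C. Cells were plated at 500/well and treated with serially diluted compound at 0.2% DMSO. IC50 values are 4-parameter fits against DMSO-treated wells.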

SK-MEL-28 tumor cells = assay: Method C: Cell Growth Inhibition Assay (CellTiter-Glo), SK-MEL-28; type: cell-based; conditions: Homo sapiens, SK-MEL-28, 72 h, 3 days, 4-parameter fit
Summary of the method: as §3

A375P F11s tumor cells = assay: Method C: Cell Growth Inhibition Assay (CellTiter-Glo), A375P F11s; type: cell-based; conditions: Homo sapiens, 72 h, 3 days, 4-parameter fit
Summary of the method: as §3

SK-MEL-3 tumor cells = assay: Method C: Cell Growth Inhibition Assay (CellTiter-Glo), SK-MEL-3; type: cell-based; conditions: Homo sapiens, SK-MEL3, 72 h, 3 days, 4-parameter fit
Summary of the method: as §4

BT474 tumor cells [6] = assay: Method C: Cell Growth Inhibition Assay (CellTiter-Glo), BT474; type: cell-based; conditions: Homo sapiens, BT-474, 72 h, 3 days, 4-parameter fit

Measured: IC50

T1 sequence (P00533 25-1210): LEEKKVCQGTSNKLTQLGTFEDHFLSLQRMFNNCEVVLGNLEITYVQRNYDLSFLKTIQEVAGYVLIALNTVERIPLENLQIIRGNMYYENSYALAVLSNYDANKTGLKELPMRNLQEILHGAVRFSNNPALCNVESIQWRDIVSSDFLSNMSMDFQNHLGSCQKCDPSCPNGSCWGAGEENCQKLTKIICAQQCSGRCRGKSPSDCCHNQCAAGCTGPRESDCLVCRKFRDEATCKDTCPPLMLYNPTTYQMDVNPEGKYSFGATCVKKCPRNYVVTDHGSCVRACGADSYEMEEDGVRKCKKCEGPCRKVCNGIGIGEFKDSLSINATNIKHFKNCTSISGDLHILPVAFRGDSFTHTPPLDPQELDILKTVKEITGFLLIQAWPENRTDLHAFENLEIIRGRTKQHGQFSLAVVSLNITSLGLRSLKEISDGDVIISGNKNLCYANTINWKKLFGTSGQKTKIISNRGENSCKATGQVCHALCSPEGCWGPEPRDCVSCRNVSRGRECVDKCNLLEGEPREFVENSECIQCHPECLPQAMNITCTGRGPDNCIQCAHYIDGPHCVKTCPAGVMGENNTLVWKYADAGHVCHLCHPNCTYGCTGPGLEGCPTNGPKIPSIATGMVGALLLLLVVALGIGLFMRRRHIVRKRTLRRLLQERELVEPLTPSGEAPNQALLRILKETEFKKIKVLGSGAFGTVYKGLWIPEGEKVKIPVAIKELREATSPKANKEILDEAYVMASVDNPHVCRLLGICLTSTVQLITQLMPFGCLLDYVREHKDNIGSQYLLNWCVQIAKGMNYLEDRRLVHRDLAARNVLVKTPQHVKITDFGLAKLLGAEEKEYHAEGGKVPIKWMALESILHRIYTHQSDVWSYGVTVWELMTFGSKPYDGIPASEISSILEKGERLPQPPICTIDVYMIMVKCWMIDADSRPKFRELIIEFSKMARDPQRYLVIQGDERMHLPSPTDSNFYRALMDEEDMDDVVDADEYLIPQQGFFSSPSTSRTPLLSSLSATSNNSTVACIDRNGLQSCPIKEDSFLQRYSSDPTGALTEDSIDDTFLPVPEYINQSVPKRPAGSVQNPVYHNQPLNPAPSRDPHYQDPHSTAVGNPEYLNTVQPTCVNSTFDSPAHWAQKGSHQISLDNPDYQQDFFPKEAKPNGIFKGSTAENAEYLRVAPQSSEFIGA
T2 sequence (P04626 23-1255): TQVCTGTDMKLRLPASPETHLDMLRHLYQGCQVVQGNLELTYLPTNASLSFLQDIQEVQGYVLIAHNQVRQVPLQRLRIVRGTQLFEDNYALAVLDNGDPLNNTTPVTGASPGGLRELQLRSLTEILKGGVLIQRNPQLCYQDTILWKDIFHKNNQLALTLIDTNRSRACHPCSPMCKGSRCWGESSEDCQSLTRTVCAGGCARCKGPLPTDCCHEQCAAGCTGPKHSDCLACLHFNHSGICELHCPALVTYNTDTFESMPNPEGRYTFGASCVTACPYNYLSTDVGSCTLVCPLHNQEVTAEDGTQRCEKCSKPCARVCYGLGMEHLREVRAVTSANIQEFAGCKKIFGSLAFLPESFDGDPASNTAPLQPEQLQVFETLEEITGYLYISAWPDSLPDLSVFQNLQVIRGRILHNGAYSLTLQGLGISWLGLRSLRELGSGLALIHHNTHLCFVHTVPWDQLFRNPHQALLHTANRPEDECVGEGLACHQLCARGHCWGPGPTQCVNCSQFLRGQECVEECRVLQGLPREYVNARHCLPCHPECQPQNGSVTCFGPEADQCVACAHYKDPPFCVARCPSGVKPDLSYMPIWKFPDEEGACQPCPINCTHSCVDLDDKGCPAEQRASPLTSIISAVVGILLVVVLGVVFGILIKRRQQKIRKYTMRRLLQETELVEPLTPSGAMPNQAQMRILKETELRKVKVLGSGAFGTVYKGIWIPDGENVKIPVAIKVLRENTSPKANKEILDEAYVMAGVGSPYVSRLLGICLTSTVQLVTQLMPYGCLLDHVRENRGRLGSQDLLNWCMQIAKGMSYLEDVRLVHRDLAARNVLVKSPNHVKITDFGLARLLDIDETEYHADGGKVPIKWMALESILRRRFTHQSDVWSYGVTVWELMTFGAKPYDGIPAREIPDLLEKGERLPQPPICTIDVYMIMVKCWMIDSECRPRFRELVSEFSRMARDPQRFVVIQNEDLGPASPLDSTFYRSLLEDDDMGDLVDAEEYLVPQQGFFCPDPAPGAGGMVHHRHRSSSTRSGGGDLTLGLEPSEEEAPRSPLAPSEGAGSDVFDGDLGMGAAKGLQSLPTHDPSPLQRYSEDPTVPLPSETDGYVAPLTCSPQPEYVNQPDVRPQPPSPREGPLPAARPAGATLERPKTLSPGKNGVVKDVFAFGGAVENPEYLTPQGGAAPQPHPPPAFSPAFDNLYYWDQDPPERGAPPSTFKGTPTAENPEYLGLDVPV

Nc1nc(-c2cccc(NC(=O)c3c(F)cccc3F)c2)c(-c2ccnc(Nc3cccc(F)c3)n2)s1 [Example 7]
> 1000 nM: Colo205 tumor cells [2]
< 100 nM: HN5 tumor cells [1] | EGFR | BT474 tumor cells [3] | ErbB2

Nc1nc(-c2cccc(NC(=O)c3c(F)cccc3F)c2)c(-c2ccnc(Nc3cccc(CCS(N)(=O)=O)c3)n2)s1 [Example 8]
< 100 nM: HN5 tumor cells [1] | EGFR | BT474 tumor cells [3] | ErbB2
100 to 1000 nM: Colo205 tumor cells [2]

Nc1nc(-c2cccc(NC(=O)c3c(F)cccc3F)c2)c(-c2ccnc(Nc3ccc4c(c3)OCC(=O)N4)n2)s1 [Example 9, hydrochloride]
< 100 nM: HN5 tumor cells [1] | EGFR | BT474 tumor cells [3] | ErbB2
> 1000 nM: Colo205 tumor cells [2]

CC(=O)N1CCC(Oc2ccc(Nc3nccc(-c4sc(C)nc4-c4cccc(NC(=O)c5c(F)cccc5F)c4)n3)cc2F)CC1 [Example 109, N-(3-{5-[2-({4-[(1-Acetyl-4-piperidinyl)oxy]-3-fluorophenyl}amino)-4-pyrimidinyl]-2-methyl-1,3-thiazol-4-yl}phenyl)-2,6-difluorobenzamide]
< 100 nM: EGFR | ErbB2
100 to 1000 nM: HN5 tumor cells [4] | BT474 tumor cells [6]
> 1000 nM: HT-29 tumor cells | Colo205 tumor cells [5] | SK-MEL-28 tumor cells | A375P F11s tumor cells | SK-MEL-3 tumor cells

Cc1nc(-c2cccc(NC(=O)c3c(F)cccc3F)c2)c(-c2ccnc(Nc3ccc(OC4CCN(C(C)C)CC4)c(F)c3)n2)s1 [Example 111, 2,6-Difluoro-N-[3-(5-{2-[(3-fluoro-4-{[1-(1-methylethyl)-4-piperidinyl]oxy}phenyl)amino]-4-pyrimidinyl}-2-methyl-1,3-thiazol-4-yl)phenyl]benzamide]
< 100 nM: EGFR | ErbB2 | BT474 tumor cells [6]
not listed: HN5 tumor cells [1] | Colo205 tumor cells [2] | BT474 tumor cells [3]
100 to 1000 nM: all other assays above

CCc1nc(-c2cccc(NC(=O)c3c(F)cccc3F)c2)c(-c2ccnc(Nc3ccc(OCCN(C)C)c(F)c3)n2)s1 [Example 112, N-[3-(5-{2-[(4-{[2-(Dimethylamino)ethyl]oxy}-3-fluorophenyl)amino]-4-pyrimidinyl}-2-ethyl-1,3-thiazol-4-yl)phenyl]-2,6-difluorobenzamide]
> 1000 nM: SK-MEL-28 tumor cells | SK-MEL-3 tumor cells
< 100 nM: EGFR | ErbB2 | BT474 tumor cells [6]
100 to 1000 nM: HN5 tumor cells [4] | HT-29 tumor cells | Colo205 tumor cells [5] | A375P F11s tumor cells

CCc1nc(-c2cccc(NC(=O)c3c(F)cccc3F)c2)c(-c2ccnc(Nc3ccc(OCCN4CCCC4)c(Cl)c3)n2)s1 [Example 113, N-[3-(5-{2-[(3-Chloro-4-{[2-(1-pwrolidinyl)ethyl]oxy}phenyl)amino]-4-pyrimidinyl}-2-ethyl-1,3-thiazol-4-yl)phenyl]-2,6-difluorobenzamide]
< 100 nM: EGFR | ErbB2
> 1000 nM: Colo205 tumor cells [5] | SK-MEL-28 tumor cells
100 to 1000 nM: HN5 tumor cells [4] | HT-29 tumor cells | A375P F11s tumor cells | SK-MEL-3 tumor cells | BT474 tumor cells [6]

CCc1nc(-c2cccc(NC(=O)c3c(F)cccc3F)c2)c(-c2ccnc(Nc3ccc(OCCN(C)C)c(Cl)c3)n2)s1 [Example 114, N-[3-(5-{2-[(3-Chloro-4-{[2-(dimethylamino)ethyl]oxy}phenyl)amino]-4-pyrimidinyl}-2-ethyl-1,3-thiazol-4-yl)phenyl]-2,6-difluorobenzamide]
< 100 nM: EGFR | ErbB2
> 1000 nM: SK-MEL-3 tumor cells
not listed: HN5 tumor cells [1] | Colo205 tumor cells [2] | BT474 tumor cells [3]
100 to 1000 nM: all other assays above

CC(C)c1nc(-c2cccc(NC(=O)c3c(F)cccc3F)c2)c(-c2ccnc(Nc3ccc(OCCN4CCCC4)c(Cl)c3)n2)s1 [Example 121, N-{3-[5-{2-[(3-chloro-4-{[2-(1-pyrrolidinyl)-ethyl]oxy}phenyl)amino]-4-pyrimidinyl}-2-(1-methylethyl)-1,3-thiazol-4-yl]phenyl}-2,6-difluorobenzamide]
< 100 nM: EGFR | ErbB2
not listed: HN5 tumor cells [1] | Colo205 tumor cells [2] | BT474 tumor cells [3]
100 to 1000 nM: all other assays above

CN1CCc2ccc(Nc3nccc(-c4sc(C5CCNCC5)nc4-c4cccc(NC(=O)c5c(F)cccc5F)c4)n3)cc2C1 [Example 124, 2,6-Difluoro-N-{3-[5-{2-[(2-methyl-1,2,3,4-tetrahydro-7-isoquinolinyl)amino]-4-pyrimidinyl}-2-(4-piperidinyl)-1,3-thiazol-4-yl]phenyl}benzamide]
100 to 1000 nM: HN5 tumor cells [4] | Colo205 tumor cells [5] | BT474 tumor cells [6]
< 100 nM: EGFR | ErbB2
> 1000 nM: HT-29 tumor cells | SK-MEL-28 tumor cells | A375P F11s tumor cells | SK-MEL-3 tumor cells

O=C(Nc1cccc(-c2nc(CO)sc2-c2ccnc(Nc3ccc(OCCN4CCCC4)c(F)c3)n2)c1)c1c(F)cccc1F [Example 126, 2,6-Difluoro-N-{3-[5-{2-[(3-fluoro-4-{[2-(1-pyrrolidinyl)ethyl]oxy}phenyl)amino]-4-pyrimidinyl}-2-(hydroxymethyl)-1,3-thiazol-4-yl]phenyl}benzamide]
100 to 1000 nM: HT-29 tumor cells | Colo205 tumor cells [5] | SK-MEL-28 tumor cells | A375P F11s tumor cells | SK-MEL-3 tumor cells
< 100 nM: HN5 tumor cells [4] | EGFR | ErbB2 | BT474 tumor cells [6]

Cc1nc(-c2cccc(NC(=O)c3cc(F)ccc3F)c2)c(-c2ccnc(Nc3ccc(OCCN(C)C)c(F)c3)n2)s1 [Example 128, N-[3-(5-{2-[(4-{[2-(Dimethylamino)ethyl]oxy}-3-fluorophenyl)amino]-4-pyrimidinyl}-2-methyl-1,3-thiazol-4-yl)phenyl]-2,5-difluorobenzamide]
> 1000 nM: Colo205 tumor cells [5] | SK-MEL-28 tumor cells | A375P F11s tumor cells | SK-MEL-3 tumor cells
100 to 1000 nM: HN5 tumor cells [4] | HT-29 tumor cells | BT474 tumor cells [6]
< 100 nM: EGFR | ErbB2

Cc1nc(-c2cccc(NC(=O)c3cccc(C(F)(F)F)c3)c2)c(-c2ccnc(Nc3ccc4c(c3)CN(C)CC4)n2)s1 [Example 131, N-[3-(2-Methyl-5-{2-[(2-methyl-1,2,3,4-tetrahydro-7-isoquinolinyl)amino]-4-pyrimidinyl}-1,3-thiazol-4-yl)phenyl]-3-(trifluoromethyl)benzamide]
< 100 nM: EGFR | ErbB2
not listed: HN5 tumor cells [1] | Colo205 tumor cells [2] | BT474 tumor cells [3]
> 1000 nM: all other assays above

Cc1nc(-c2cccc(NC(=O)c3ccc(F)cc3)c2)c(-c2ccnc(Nc3ccc(OCCN(C)C)c(Cl)c3)n2)s1 [Example 134, N-[3-(5-{2-[(3-Chloro-4-{[2-(dimethylamino)ethyl]oxy}phenyl)amino]-4-pyrimidinyl}-2-methyl-1,3-thiazol-4-yl)phenyl]-4-fluorobenzamide]
< 100 nM: EGFR | ErbB2
> 1000 nM: Colo205 tumor cells [5] | SK-MEL-28 tumor cells | A375P F11s tumor cells | SK-MEL-3 tumor cells
100 to 1000 nM: HN5 tumor cells [4] | HT-29 tumor cells | BT474 tumor cells [6]
